Reference: US11760889B2, “Unsaturated fatty alcohol derivatives from natural oil metathesis” (priority 2012, dated 2023)

Key:
[1] = Anionic emulsifier: emulsion stability testing of EW concentrate (modified ASTM E1116-98)
Description: Turbidity changes are noted and recorded.
A Mohr pipette is used to feed EW concentrate to each cylinder. Cylinders are stoppered and inverted ten times, then allowed to stand for 0.5, 1, and 24 h while recording stability at each time as type and % separation.
Spontaneity is recorded according to the following criteria: (1) poor: very thin emulsion cloud with major separation of oil droplets; (2) fair: thin emulsion cloud with minor separation of oil droplets; (3) good: thin emulsion cloud reaches the bottom of the cylinder without separation of any type; (4) excellent: thick emulsion cloud reaches the bottom of the cylinder without separation of any type.

[2] = Water-soluble herbicide formulation testing (standard dilution test, emulsion stability); assay type: physicochemical; design: key to Emulsion stability, mL separation, 24 h: Tr = trace; conditions: 342 ppm water;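 also: diluted in a 50 mL Nessler cylinder held at 30 °C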
Description: Surfactant candidates for water soluble herbicide applications are examined as a replacement for the anionic, nonionic, or anionic/nonionic blend portion and compared to a known industry adjuvant standard for use in paraquat, a water soluble herbicide concentrate formulation. A standard dilution test is conducted whereby the concentrates are diluted in water to determine if solubility is complete.
The cylinder is stoppered and inverted ten times. Solubility is recorded as complete or incomplete. Cylinders are allowed to stand and the amount (in mL) and type of separation are recorded after 30 min., 1 h, 2 h, and 24 h. Results of the solubility testing appear in Table 3 below.
An eight to ten mole alkyl phenol ethoxylate surfactant (0.7 g) is added and vigorously mixed for 30 s. Test sample (0.7 g) is added and mixing resumes for 30 s.
Test sample (0.7 g) is added and vigorously mixed for 30 s. Sodium linear alkylbenzene sulfonate (“NaLAS,” 0.7 g) is added and mixing resumes for 30 s.

[3] = Surfactant phase behavior study (cross-polarized microscopy); assay type: physicochemical; conditions: room temperature (20-22° C.)
Description: Phase behavior is observed using an Olympus BH-2 cross-polarized microscope at 100-400× and room temperature (20° C. to 22° C.). The inventive monounsaturated sulfates and ethoxylate sulfates are compared with their saturated analogs, and in some cases, commercial surfactants.
Samples are prepared by diluting the most concentrated product gradually with deionized water. When the surfactant concentration approaches a phase transition, the concentration is varied at 2-4% intervals to estimate the phase boundary. The actives level reported in Table 15 for each phase boundary is within ±5% of the true boundary.
Samples are loaded between a microscope slide and cover glass and are allowed to equilibrate before observation. Microscopic texture is analyzed and used to determine the phase. For some samples, an AR 2000 rheometer (TA Instruments) is used to measure viscosity at 25° C. to further verify phase behavior.

[4] = Adjuvant (anionic/nonionic) test sample

Compound | % Separation, 1 h ([1]; 34 ppm water) | % Separation, 24 h ([1]; 34 ppm water) | % Separation, 1 h ([1]; 1000 ppm water) | % Separation, 24 h ([1]; 1000 ppm water) | Emulsion stability, mL separation, 1 h [2, 4] | Emulsion stability, mL separation, 24 h [2, 4] | Emulsion stability, mL separation, 1 h ([2]; Anionic test sample) | Emulsion stability, mL separation, 24 h ([2]; Anionic test sample) | Emulsion stability, mL separation, 1 h ([2]; Nonionic test sample) | Emulsion stability, mL separation, 24 h ([2]; Nonionic test sample) | Estimated Phase Region: Cubic [3] | Estimated Phase Region: Hexagonal [3] | Estimated Phase Region: Isotropic Clear [3] | Estimated Phase Region: Lamellar [3] | Estimated Phase Region: Solid/gum/paste [3] | Estimated Phase Region: Unknown [3]
1 Mole Ethoxylated C10 Alcohol, Ammonium Sulfate [A10-5] | 3.8% | 4.3% | 2.8% | 3% |  |  |  |  |  |  |  |  |  |  |  | 
1 Mole Ethoxylated C10 Alcohol, Sodium Sulfate [A10-6] | 4% | 4.9% | 3% | 3.2% | 0 mL | 0 mL | 0 mL | 0 mL | 0 mL | Tr |  |  |  |  |  | 
1 Mole Ethoxylated C12 Alcohol, Ammonium Sulfate [A12-5] | 4% | 4.1% | 3% | 3.5% |  |  |  |  |  |  |  |  |  |  |  | 
1 Mole Ethoxylated C12 Alcohol, Sodium Sulfate [A12-6] | 4.3% | 5.2% | 2.7% | 3.7% | 0 mL | 0 mL | 0 mL | 0 mL | 0 mL | 0 mL |  |  |  |  |  | 
3 Mole Ethoxylated C10 Alcohol, Ammonium Sulfate [A10-8] | 3.5% | 3.9% | 3.5% | 3.5% |  |  |  |  |  |  |  |  |  |  |  | 
3 Mole Ethoxylated C10 Alcohol, Sodium Sulfate [A10-9] | 4% | 3.6% | 3.5% | 3.9% | 0 mL | 0 mL | 0 mL | 0 mL | 0 mL | 0 mL |  |  |  |  |  | 
3 Mole Ethoxylated C12 Alcohol, Ammonium Sulfate [A12-8] | 3% | 4% | 3.7% | 3.9% |  |  |  |  |  |  |  |  |  |  |  | 
3 Mole Ethoxylated C12 Alcohol, Sodium Sulfate [A12-9] | 3.3% | 4.2% | 2.1% | 3% | 0 mL | 0 mL | 0 mL | 0 mL | 0 mL | 0 mL | 60-68 % actives | 31-60 % actives | 0-31 % actives | 68-87 % actives | 87-100 % actives | 
5 Mole Ethoxylated C10 Alcohol, Ammonium Sulfate [A10-11] | 3.9% | 5% | 2.5% | 3.1% |  |  |  |  |  |  |  |  |  |  |  | 
5 Mole Ethoxylated C10 Alcohol, Sodium Sulfate [A10-12] | 3.6% | 4% | 3.4% | 4.3% | 0 mL | 0 mL | 0 mL | 0 mL | 0 mL | 0 mL |  |  |  |  |  | 
5 Mole Ethoxylated C12 Alcohol, Ammonium Sulfate [A12-11] | 3.6% | 3.8% | 2.1% | 3% |  |  |  |  |  |  |  |  |  |  |  | 
5 Mole Ethoxylated C12 Alcohol, Sodium Sulfate [A12-12] | 4.1% | 4.5% | 3% | 3.8% | 0 mL | 0 mL | 0 mL | 0 mL | 0 mL | 0 mL |  |  |  |  |  | 
7 Mole Ethoxylated C10 Alcohol, Ammonium Sulfate [A10-14] | 3.5% | 4% | 3.5% | 4.1% |  |  |  |  |  |  |  |  |  |  |  | 
7 Mole Ethoxylated C10 Alcohol, Sodium Sulfate [A10-15] | 3.5% | 3.9% | 3% | 4.1% | 0 mL | 0 mL | 0 mL | 0 mL | 0 mL | 0 mL |  |  |  |  |  | 
7 Mole Ethoxylated C12 Alcohol, Ammonium Sulfate [A12-14] | 3.9% | 4.1% | 2.8% | 3.5% |  |  |  |  |  |  |  |  |  |  |  | 
7 Mole Ethoxylated C12 Alcohol, Sodium Sulfate [A12-15] | 3.5% | 3.9% | 3.5% | 4% | 0 mL | 0 mL | 0 mL | 0 mL | 0 mL | 0 mL |  |  |  |  |  | 
15 Mole Ethoxylated C10 Alcohol, Ammonium Sulfate [A10-17] | 1.5% | 2.2% | 1.5% | 2% |  |  |  |  |  |  |  |  |  |  |  | 
15 Mole Ethoxylated C10 Alcohol, Sodium Sulfate [A10-18] | 2.5% | 2.8% | 4% | 4% | 0 mL | 0 mL | 0 mL | 0 mL | 0 mL | 0 mL |  |  |  |  |  | 
15 Mole Ethoxylated C12 Alcohol, Ammonium Sulfate [A12-17] | 4% | 3.8% | 3.5% | 4.2% |  |  |  |  |  |  |  |  |  |  |  | 
15 Mole Ethoxylated C12 Alcohol, Sodium Sulfate [A12-18] | 3% | 4.3% | 2.5% | 3.9% | 0 mL | 0 mL | 0 mL | 0 mL | 0 mL | 0 mL |  |  |  |  |  | 
CCCCCCCCCCOS(=O)(=O)O.N [sat. analog of A10-2, reference compound] |  |  |  |  |  |  |  |  |  |  |  | 42-64 % actives |  | 64-80 % actives | 80-100 % actives | 0-42 % actives
CCCCCCCCCCOS(=O)(=O)[O-].[Na+] [sat. analog of A10-3, reference compound] |  |  |  |  |  |  |  |  |  |  |  | 41-59 % actives | 0-41 % actives |  | 59-100 % actives | 
CCCCCCCCCCCCOS(=O)(=O)O.N [sat. analog of A12-2, reference compound] |  |  |  |  |  |  |  |  |  |  |  | 31-63 % actives | 0-31 % actives | 63-74 % actives | 74-100 % actives | 
CCCCCCCCCCCCOS(=O)(=O)[O-].[Na+] [sat. analog of A12-3, reference compound] |  |  |  |  |  |  |  |  |  |  |  |  | 0-31 % actives |  | 31-100 % actives | 
CCCCCCCCCCCCOCCOCCOCCOS(=O)(=O)[O-].[Na+] [sat. analog of A12-9, reference compound] |  |  |  |  |  |  |  |  |  |  |  | 24-60 % actives | 0-24 % actives | 60-78 % actives | 78-100 % actives | 
C12 Alcohol Ammonium Sulfate [A12-2] | 4% | 4.2% | 2.5% | 3.2% |  |  |  |  |  |  |  | 33-70 % actives | 0-33 % actives | 70-83 % actives | 83-100 % actives | 
